Legend:
[1] = tested on: immunoglobulins (IgG, IgM, IgA and IgE); assay: affinity chromatography of raw murine serum on peptide immobilized on CH-Sepharose-4B; type: binding; details: Western Blot, albumin not retained
[2] = tested on: immunoglobulin fraction of the raw serum; assay: affinity chromatography of raw rabbit serum on peptide immobilized on CH-Sepharose-4B; type: binding; details: 50 mM Bis-Tris pH 6.5, elution with acetic acid 0.1 M pH 3.0, albumin eluted to the dead volume
Procedure: (§1) The peptide of formula (IB) prepared in Example 1 (10 mg) was dissolved in 5 ml of aqueous solution of sodium bicarbonate 0.1 M, NaCl 0.5 M, pH 8.5 and then added to 0.5 g of activated resin CH-Sepharose-4B (Amersham Biosciences, Uppsala, Sweden, Cat. No. 17-0490-01), a preactivated support for affinity chromatography for the direct coupling of peptides and proteins. The suspension was stirred for 24 hours and the extent of coupling was monitored by taking samples of the reaction mixture, at various times, followed by analysis by RP-HPLC.
(§2) Approximately 90-95% of the initial peptide is found to be bound covalently to the resin after 24 hours. The derivatized resin is incubated with 0.1 M Tris, pH 8.5 to block any sites of the resin that are still reactive, and is then packed in a glass column 100 x 0.6 cm I.D. with a variable piston (OMNIFIT, Cat. No. 006CC-06-10-FF).
(§3) For the purification of immunoglobulins from serum, the column was equilibrated with a buffer 50 mM Bis-Tris (Sigma, Cat. No. B9754), pH 6.5, to a flow of 1 ml/min, monitoring the eluent at 280 nm. Raw rabbit serum (Sigma, Cat, No. R9133) was loaded in the column and, after elution of the material that was not bound, the eluent was changed to acetic acid 0.1 M, pH 3.0, for elution of the adsorbed material. […]

[3] = tested on: RBL 2H3 cells; assay: assay for degranulation of the RBL 2H3 cells (release of β-hexose-aminidase induced by anti-DNP IgE and DNP-BSA antigen); type: cell-based, rat; details: for percentage inhibition of the degranulation reaction: added together with the antigen; for concentration able to reduce 50% of the cellular degranulation: RBL 2H3 cells, 0.5 µg/ml IgE, 0.05 µg/ml DNP-BSA; for IC50: read-out: concentration able to reduce 50% of the cellular degranulation
Excerpt: The RBL 2H3 cell line, rat basophils that express the receptor with high affinity for the immunoglobulins of class E (FcεRl), is widely used for investigating allergic reactions, because in this cell line the chemical mediators of inflammation are released as a result of allergen specific-IgE-FcεRI binding.
Release of the enzyme β-hexose-aminidase, which is present together with histamine in the granules of mast cells and basophils, can be used as an index of cellular degranulation (Tanaka et al., 1991, Chem. Pharm. Bull, 39, 2072-2076; McCloskey et al., 1988, Proc. Natl. Acad. Sci., USA, 85, 7260-7264).
The activity of the enzyme β-hexose-aminidase, released by the stimulated RBL 2H3 cells, was determined by the method described by Yamanishi et al., 1995, Jour. Biotech. Biochem., 59 (7), 1272-1275, which envisages measurement of the enzymatic activity by measuring the absorbance of the product p-nitrophenol generated by the synthetic substrate p-nitrophenyl-N-acetyl-β-D-glucosamide. 1x10^5 RBL 2H3 cells, trypsinized from plates at confluence, were resuspended in a volume of 80 µl of the culture medium (MEM + 10% inactivated fetal bovine serum) and distributed in each well of the 96-well plates (Costar). After 24 hours, 20 µl of medium containing anti-2,4-dinitrophenol monoclonal IgEs (DNP, Sigma, Cat. No. D-8406) was added to each well.
The microplates were incubated at 37°C for one hour and then washed three times with 100 µl of HBS buffer solution (10 mM HEPES, 135 mM NaCl, 5 mM KCI, 1 mM CaCl2, 0.5 mM MgCl2, 5.6 mM glucose, 0.1 % BSA, pH 7.4). After the washings, 100 µl of HBS containing the 2,4-dinitrophenol antigen conjugated to BSA (Sigma, Cat. No. A-6661) was added. As a control, 100 µl of HBS containing 1% Triton X-100 was added to some wells to determine the total amount of enzyme contained in the cellular granules.
After further incubation at 37°C for two hours, 30 µl of cellular supernatant or of cellular lysate was transferred to a new microplate, to which 50 µl of sodium citrate buffer at pH 4.5, containing 4 mM p-nitrophenyl-N-acetyl-β-D-glucosaminide (Sigma, Cat. No. N9376), a specific substrate for the enzyme β-hexose-aminidase, had been added beforehand. After incubation for two hours at 37°C, the reaction was stopped by adding 100 µl of glycine solution 0.2 M, pH 10.7. The enzymatic activity was determined by measuring the absorbance at 405 nm with a Microplate Reader Model 3550 EIA (Bio-Rad).
In preliminary experiments the immunoglobulins E and the antigen were added at various concentrations in order to determine the optimum concentrations for induction of the reaction of enzymatic release. The conditions identified experimentally correspond to 0.5 µg/ml of IgE and 0.05 µg/ml of antigen DNP conjugated to BSA.
To verify the capacity of the peptides of formula IB and of comparative peptides for inhibiting the degranulation of the RBL 2H3 cells, the peptides were added in the assay together with the antigen at concentrations between 0.1 and 500 µg/ml.

[4] = tested on: immunoglobulins (IgG, IgM, IgA and IgE); assay: affinity chromatography of raw human serum on peptide immobilized on CH-Sepharose-4B; type: binding; details: Western Blot, albumin not retained
Procedure: as §1, §2, §3

[5] = Concentration of Peptide 0.1 µg/ml
[6] = Concentration of Peptide 1 µg/ml
[7] = Concentration of Peptide 10 µg/ml
[8] = Concentration of Peptide 50 µg/ml
[9] = Concentration of Peptide 100 µg/ml
[10] = Concentration of Peptide 500 µg/ml

Row | Compound | retention of immunoglobulins by the peptide column [1] | retention of immunoglobulins by the peptide column [2] | percentage inhibition of the degranulation reaction [3, 5] [%] | percentage inhibition of the degranulation reaction [3, 6] [%] | percentage inhibition of the degranulation reaction [3, 7] [%] | percentage inhibition of the degranulation reaction [3, 8] [%] | percentage inhibition of the degranulation reaction [3, 9] [%] | percentage inhibition of the degranulation reaction [3, 10] [%] | concentration able to reduce 50% of the cellular degranulation [3] [µg/mL] | activity greater than the activity of the comparative peptide ([3]; degranulation of RBL 2H3 cells) | IC50 [3] [µM] | retention of immunoglobulins by the peptide column [4]
1 | (H-L-Cys(p-MeOBzl)-D-Arg-D-Thr-D-Tyr)4-L-Lys2-L-Lys-L-Lys-OH [Peptide IB] | able to retain the immunoglobulins (IgG, IgM, IgA and IgE) | able to retain the immunoglobulin fraction of the raw serum | 20 | 76 | 80 | 82 | 85 | 90 | 1 | approx. 15 times | ~0.3 | able to retain the immunoglobulins (IgG, IgM, IgA and IgE)
2 | C[C@H](O)[C@@H](NC(=O)[C@H](N)CCCNC(=N)N)C(=O)N[C@H](Cc1ccc(O)cc1)C(=O)NCCCC[C@H](NC(=O)[C@@H](Cc1ccc(O)cc1)NC(=O)[C@H](NC(=O)[C@H](N)CCCNC(=N)N)[C@H](C)O)C(=O)NCCCC[C@H](NC(=O)[C@H](CCCCNC(=O)[C@@H](Cc1ccc(O)cc1)NC(=O)[C@H](NC(=O)[C@H](N)CCCNC(=N)N)[C@H](C)O)NC(=O)[C@@H](Cc1ccc(O)cc1)NC(=O)[C@H](NC(=O)[C@H](N)CCCNC(=N)N)[C@H](C)O)C(=O)NCC(=O)O [Comparative peptide, (H-D-Arg-D-Thr-D-Tyr-)4-L-Lys2-L-Lys-Gly-OH, reference compound] |  |  | 0 | 40 | 49 | 59 | 62 | 70 | 10 |  | 4.6 | 
